Patent publication US20140058103A1, “Inhibitors of PI3K-Delta and Methods of Their Use and Manufacture” (Exelixis, Inc., priority 2010, published 2014)

molecular target: PI3K delta (Homo sapiens, UniProt O00329); assay: Luciferase-coupled chemiluminescence kinase assay (ATP consumption, KinaseGlo); assay type: biochemical
Outline: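 Compound, kinase and ATP (≤ KM) reacted 2 h at ambient temperature, then remaining ATP quantified with luciferase-luciferin (KinaseGlo) luminescence as percent consumed.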

Chain of PI3K delta (O00329 whole entry): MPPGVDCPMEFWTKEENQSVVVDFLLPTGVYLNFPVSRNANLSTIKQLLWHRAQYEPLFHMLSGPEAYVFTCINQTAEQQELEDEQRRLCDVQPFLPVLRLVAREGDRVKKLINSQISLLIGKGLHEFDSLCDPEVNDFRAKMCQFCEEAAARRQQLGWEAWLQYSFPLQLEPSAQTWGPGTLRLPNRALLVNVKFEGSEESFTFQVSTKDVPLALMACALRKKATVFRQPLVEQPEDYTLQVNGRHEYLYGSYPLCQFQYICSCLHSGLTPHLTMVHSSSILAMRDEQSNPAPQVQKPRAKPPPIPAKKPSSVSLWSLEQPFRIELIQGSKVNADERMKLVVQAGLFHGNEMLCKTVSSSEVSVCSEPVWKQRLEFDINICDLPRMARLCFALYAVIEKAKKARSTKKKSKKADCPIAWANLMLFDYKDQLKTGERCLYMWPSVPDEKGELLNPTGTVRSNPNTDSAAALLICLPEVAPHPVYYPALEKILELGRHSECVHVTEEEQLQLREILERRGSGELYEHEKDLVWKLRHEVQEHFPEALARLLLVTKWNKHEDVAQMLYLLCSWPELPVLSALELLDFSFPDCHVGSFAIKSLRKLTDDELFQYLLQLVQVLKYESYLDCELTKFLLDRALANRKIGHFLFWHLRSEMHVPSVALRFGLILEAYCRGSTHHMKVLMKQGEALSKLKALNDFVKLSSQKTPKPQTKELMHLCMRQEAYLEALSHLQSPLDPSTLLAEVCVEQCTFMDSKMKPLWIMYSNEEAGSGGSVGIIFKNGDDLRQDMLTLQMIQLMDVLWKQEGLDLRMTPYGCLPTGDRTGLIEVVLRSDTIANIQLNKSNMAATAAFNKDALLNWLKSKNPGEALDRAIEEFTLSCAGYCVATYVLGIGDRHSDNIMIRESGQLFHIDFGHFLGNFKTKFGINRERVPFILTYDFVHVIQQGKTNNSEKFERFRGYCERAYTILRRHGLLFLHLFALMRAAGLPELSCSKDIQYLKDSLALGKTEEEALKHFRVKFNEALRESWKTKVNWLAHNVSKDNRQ
Chain of PI3K delta (P27986 whole entry partner): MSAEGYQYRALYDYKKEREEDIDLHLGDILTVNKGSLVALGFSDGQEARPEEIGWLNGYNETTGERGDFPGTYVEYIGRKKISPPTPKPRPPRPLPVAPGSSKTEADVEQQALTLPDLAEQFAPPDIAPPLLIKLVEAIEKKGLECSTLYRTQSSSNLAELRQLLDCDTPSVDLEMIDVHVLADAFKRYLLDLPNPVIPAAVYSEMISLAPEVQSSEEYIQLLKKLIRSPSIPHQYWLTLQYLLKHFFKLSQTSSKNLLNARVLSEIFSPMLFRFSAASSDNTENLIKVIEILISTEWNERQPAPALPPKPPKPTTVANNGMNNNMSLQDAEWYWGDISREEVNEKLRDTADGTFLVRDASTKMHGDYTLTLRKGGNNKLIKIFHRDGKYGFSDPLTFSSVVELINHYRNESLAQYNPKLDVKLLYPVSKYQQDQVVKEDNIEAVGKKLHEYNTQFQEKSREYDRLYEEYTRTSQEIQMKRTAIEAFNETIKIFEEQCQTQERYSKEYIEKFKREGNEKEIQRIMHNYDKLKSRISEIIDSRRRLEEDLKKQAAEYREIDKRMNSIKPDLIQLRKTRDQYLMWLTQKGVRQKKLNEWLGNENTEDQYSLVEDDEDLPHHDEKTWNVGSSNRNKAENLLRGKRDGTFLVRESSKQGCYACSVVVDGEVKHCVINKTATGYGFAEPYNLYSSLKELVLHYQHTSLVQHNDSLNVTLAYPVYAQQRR

IC50 [µM]	SMILES
0.05 to 0.25	Cn1c(-c2ccnnc2)nc2c(N3CCC(n4c(=O)[nH]c5ccccc54)CC3)ncnc21 [Compound 280, 1-[1-(9-methyl-8-pyridazin-4-yl-9H-purin-6-yl)piperidin-4-yl]-1,3-dihydro-2H-benzimidazol-2-one]
< 0.05	CCn1ncc(-c2nc3c(N4CCC(n5c(=O)[nH]c6ccccc65)CC4)ncnc3n2C)c1C [Compound 281, 1-{1-[8-(1-ethyl-5-methyl-1H-pyrazol-4-yl)-9-methyl-9H-purin-6-yl]piperidin-4-yl}-1,3-dihydro-2H-benzimidazol-2-one]
< 0.05	Cc1cncc(-c2nc3c(N4CCC(n5c(=O)[nH]c6ccccc65)CC4)ncnc3n2C)c1 [Compound 282, 1-{1-[9-methyl-8-(5-methylpyridin-3-yl)-9H-purin-6-yl]piperidin-4-yl}-1,3-dihydro-2H-benzimidazol-2-one]
< 0.05	Cn1c(-c2ccc(Cl)nc2)nc2c(N3CCC(n4c(=O)[nH]c5ccccc54)CC3)ncnc21 [Compound 283, 1-{1-[8-(6-chloropyridin-3-yl)-9-methyl-9H-purin-6-yl]piperidin-4-yl}-1,3-dihydro-2H-benzimidazol-2-one]
0.5 to 1.5	Cc1nc(C(F)(F)F)ccc1-c1nc2c(N3CCC(n4c(=O)[nH]c5ccccc54)CC3)ncnc2n1C [Compound 284, 1-(1-{9-methyl-8-[2-methyl-6-(trifluoromethyl)pyridin-3-yl]-9H-purin-6-yl}piperidin-4-yl)-1,3-dihydro-2H-benzimidazol-2-one]
< 0.05	Cn1c(-c2cncc(Br)c2)nc2c(N3CCC(n4c(=O)[nH]c5ccccc54)CC3)ncnc21 [Compound 285, 1-{1-[8-(5-bromopyridin-3-yl)-9-methyl-9H-purin-6-yl]piperidin-4-yl}-1,3-dihydro-2H-benzimidazol-2-one]
< 0.05	Cn1c(-c2cn[nH]c2-c2ccccc2)nc2c(N3CCC(n4c(=O)[nH]c5ccccc54)CC3)ncnc21 [Compound 286, 1-{1-[9-methyl-8-(5-phenyl-1H-pyrazol-4-yl)-9H-purin-6-yl]piperidin-4-yl}-1,3-dihydro-2H-benzimidazol-2-one]
< 0.05	Cn1c(-c2cn[nH]c2C2CC2)nc2c(N3CCC(n4c(=O)[nH]c5ccccc54)CC3)ncnc21 [Compound 287, 1-{1-[8-(5-cyclopropyl-1H-pyrazol-4-yl)-9-methyl-9H-purin-6-yl]piperidin-4-yl}-1,3-dihydro-2H-benzimidazol-2-one]
< 0.05	Cn1cncc1-c1nc2c(N3CCC(n4c(=O)[nH]c5ccccc54)CC3)ncnc2n1C [Compound 288, 1-{1-[9-methyl-8-(1-methyl-1H-imidazol-5-yl)-9H-purin-6-yl]piperidin-4-yl}-1,3-dihydro-2H-benzimidazol-2-one]
0.05 to 0.25	Cn1c(C(=O)NCC2CC2)nc2c(N3CC=C(n4c(=O)[nH]c5ccccc54)CC3)ncnc21 [Compound 289, N-(cyclopropylmethyl)-9-methyl-6-[4-(2-oxo-2,3-dihydro-1H-benzimidazol-1-yl)-3,6-dihydropyridin-1(2H)-yl]-9H-purine-8-carboxamide]
< 0.05	Cn1c(-c2cccnc2)nc2c(N3CCC4(CC3)C(=O)Nc3ccccc34)ncnc21 [Compound 290, 1′-(9-methyl-8-pyridin-3-yl-9H-purin-6-yl)spiro[indole-3,4′-piperidin]-2(1H)-one]
< 0.05	CCn1c(-c2cccnc2)nc2c(N3CCC4(CC3)C(=O)Nc3ccccc34)ncnc21 [Compound 291, 1′-(9-ethyl-8-pyridin-3-yl-9H-purin-6-yl)spiro[indole-3,4′-piperidin]-2(1H)-one]
< 0.05	CCn1c(-c2cncnc2)nc2c(N3CCC4(CC3)C(=O)Nc3ccccc34)ncnc21 [Compound 292, 1′-(9-ethyl-8-pyrimidin-5-yl-9H-purin-6-yl)spiro[indole-3,4′-piperidin]-2(1H)-one]
< 0.05	Cn1c(-c2cncnc2)nc2c(N3CCC4(CC3)C(=O)Nc3ccccc34)ncnc21 [Compound 293, 1′-(9-Methyl-8-pyrimidin-5-yl-9H-purin-6-yl)spiro[indole-3,4′-piperidin]-2(1H)-one]
< 0.05	CCn1c(-c2cncnc2)nc2c(N3CCC(n4c(=O)[nH]c5ccccc54)CC3)ncnc21 [Compound 294, 1-[1-(9-ethyl-8-pyrimidin-5-yl-9H-purin-6-yl)piperidin-4-yl]-1,3-dihydro-2H-benzimidazol-2-one]
< 0.05	Cn1cc(-c2nc3c(N4CCC(n5c(=O)[nH]c6c(F)cccc65)CC4)ncnc3n2C)cn1 [Compound 295, 4-fluoro-1-{1-[9-methyl-8-(1-methyl-1H-pyrazol-4-yl)-9H-purin-6-yl]piperidin-4-yl}-1,3-dihydro-2H-benzimidazol-2-one]
< 0.05	CCn1c(-c2cccnc2)nc2c(N3CCC(n4c(=O)[nH]c5ccccc54)CC3)ncnc21 [Compound 296, 1-[1-(9-ethyl-8-pyridin-3-yl-9H-purin-6-yl)piperidin-4-yl]-1,3-dihydro-2H-benzimidazol-2-one]

IC50 [µM]	SMILES
0.05 to 0.25	Cn1c(-c2cccnn2)nc2c(N3CCC(n4c(=O)[nH]c5ccccc54)CC3)ncnc21 [Compound 297, 1-[1-(9-methyl-8-pyridazin-3-yl-9H-purin-6-yl)piperidin-4-yl]-1,3-dihydro-2H-benzimidazol-2-one]
0.25 to 0.5	Cn1c(-c2ccncn2)nc2c(N3CCC(n4c(=O)[nH]c5ccccc54)CC3)ncnc21 [Compound 298, 1-[1-(9-methyl-8-pyrimidin-4-yl-9H-purin-6-yl)piperidin-4-yl]-1,3-dihydro-2H-benzimidazol-2-one]
< 0.05	COc1ccc(-c2nc3c(N4CCC(n5c(=O)[nH]c6ccccc65)CC4)ncnc3n2C)cn1 [Compound 299, 1-(1-{9-methyl-8-[6-(methyloxy)pyridin-3-yl]-9H-purin-6-yl}piperidin-4-yl)-1,3-dihydro-2H-benzimidazol-2-one]
0.5 to 1.5	Cn1c(-c2ccc(O)nc2)nc2c(N3CCC(n4c(=O)[nH]c5ccccc54)CC3)ncnc21 [Compound 300, 1-{1-[8-(6-hydroxypyridin-3-yl)-9-methyl-9H-purin-6-yl]piperidin-4-yl}-1,3-dihydro-2H-benzimidazol-2-one]
< 0.05	Cn1c(-c2c[nH]c3ncccc23)nc2c(N3CCC(n4c(=O)[nH]c5ccccc54)CC3)ncnc21 [Compound 301, 1-{1-[9-methyl-8-(1H-pyrrolo[2,3-b]pyridin-3-yl)-9H-purin-6-yl]piperidin-4-yl}-1,3-dihydro-2H-benzimidazol-2-one]
< 0.05	Cn1c(-c2cnc3[nH]ccc3c2)nc2c(N3CCC(n4c(=O)[nH]c5ccccc54)CC3)ncnc21 [Compound 302, 1-{1-[9-methyl-8-(1H-pyrrolo[2,3-b]pyridin-5-yl)-9H-purin-6-yl]piperidin-4-yl}-1,3-dihydro-2H-benzimidazol-2-one]
< 0.05	Cn1c(-c2ccc(N)nc2)nc2c(N3CCC(n4c(=O)[nH]c5ccccc54)CC3)ncnc21 [Compound 303, 1-{1-[8-(6-aminopyridin-3-yl)-9-methyl-9H-purin-6-yl]piperidin-4-yl}-1,3-dihydro-2H-benzimidazol-2-one]
< 0.05	CCn1c(-c2cnc(N)nc2)nc2c(N3CCC(n4c(=O)[nH]c5ccccc54)CC3)ncnc21 [Compound 304, 1-{1-[8-(2-aminopyrimidin-5-yl)-9-ethyl-9H-purin-6-yl]piperidin-4-yl)-1,3-dihydro-2H-benzimidazol-2-one]
< 0.05	Cn1c(-c2cnc(N)nc2)nc2c(N3CCC(n4c(=O)[nH]c5ccccc54)CC3)ncnc21 [Compound 305, 1-{1-[8-(2-aminopyrimidin-5-yl)-9-methyl-9H-purin-6-yl]piperidin-4-yl}-1,3-dihydro-2H-benzimidazol-2-one]
< 0.05	CCn1c(-c2cnc(OC)nc2)nc2c(N3CCC(n4c(=O)[nH]c5ccccc54)CC3)ncnc21 [Compound 306, 1-(1-{9-ethyl-8-[2-(methyloxy)pyrimidin-5-yl]-9H-purin-6-yl}piperidin-4-yl)-1,3-dihydro-2H-benzimidazol-2-one]
< 0.05	CCn1c(-c2cnc(NC)nc2)nc2c(N3CCC(n4c(=O)[nH]c5ccccc54)CC3)ncnc21 [Compound 307, 1-(1-{9-ethyl-8-[2-(methylamino)pyrimidin-5-yl]-9H-purin-6-yl)piperidin-4-yl)-1,3-dihydro-2H-benzimidazol-2-one]
0.05 to 0.25	COc1ncc(-c2nc3c(N4CCC(n5c(=O)[nH]c6ccccc65)CC4)ncnc3n2C)c(OC)n1 [Compound 308, 1-(1-{8-[2,4-bis(methyloxy)pyrimidin-5-yl]-9-methyl-9H-purin-6-yl)piperidin-4-yl)-1,3-dihydro-2H-benzimidazol-2-one]
< 0.05	CNc1ncc(-c2nc3c(N4CCC(n5c(=O)[nH]c6ccccc65)CC4)ncnc3n2C)cn1 [Compound 309, 1-(1-{9-methyl-8-[2-(methylamino)pyrimidin-5-yl]-9H-purin-6-yl}piperidin-4-yl)-1,3-dihydro-2H-benzimidazol-2-one]
< 0.05	COc1ncc(-c2nc3c(N4CCC(n5c(=O)[nH]c6ccccc65)CC4)ncnc3n2C)cn1 [Compound 310, 1-(1-{9-methyl-8-[2-(methyloxy)pyrimidin-5-yl]-9H-purin-6-yl}piperidin-4-yl)-1,3-dihydro-2H-benzimidazol-2-one]
< 0.05	CN(C)c1ncc(-c2nc3c(N4CCC(n5c(=O)[nH]c6ccccc65)CC4)ncnc3n2C)cn1 [Compound 311, 1-(1-{8-[2-(dimethylamino)pyrimidin-5-yl]-9-methyl-9H-purin-6-yl}piperidin-4-yl)-1,3-dihydro-2H-benzimidazol-2-one]
< 0.05	CCn1c(-c2ccnnc2)nc2c(N3CCC(n4c(=O)[nH]c5ccccc54)CC3)ncnc21 [Compound 312, 1-[1-(9-ethyl-8-pyridazin-4-yl-9H-purin-6-yl)piperidin-4-yl]-1,3-dihydro-2H-benzimidazol-2-one]
0.05 to 0.25	Cn1c(-c2ccnnc2)nc2c(N3CCC4(CC3)C(=O)Nc3ccccc34)ncnc21 [Compound 313, 1′-(9-methyl-8-pyridazin-4-yl-9H-purin-6-yl)spiro[indole-3,4′-piperidin]-2(1H)-one]
